Where “and” joins values, the source holds several entries; their conditions need not be identical. Equal values may be shown once.

In experiment [1] the target is T1, human GPR119 (Homo sapiens, UniProt Q8TDV5).
T1 construct: host or cells: HEK293-CRE-beta-lactamase
T1 sequence (Q8TDV5 1-335): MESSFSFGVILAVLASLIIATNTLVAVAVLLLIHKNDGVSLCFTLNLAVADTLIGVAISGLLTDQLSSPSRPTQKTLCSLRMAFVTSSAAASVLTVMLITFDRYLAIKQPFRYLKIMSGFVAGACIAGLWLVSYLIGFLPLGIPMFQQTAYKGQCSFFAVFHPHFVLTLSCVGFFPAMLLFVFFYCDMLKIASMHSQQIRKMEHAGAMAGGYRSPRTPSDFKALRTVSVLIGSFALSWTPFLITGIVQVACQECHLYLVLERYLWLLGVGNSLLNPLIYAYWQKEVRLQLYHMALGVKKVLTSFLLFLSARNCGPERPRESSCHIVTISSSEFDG
The experiment is described as follows: beta-lactamase reporter functional assay (hGPR119 HEK293-CRE beta-lactamase cells). The format is cell-based. The settings on record: for EC50: read-out: Human B-lactamase Functional EC50; for Emax: read-out: Intrinsic Activity* (B-lactamase). Here is the method:
The assay for GPR119 agonists utilizes a cell-based (hGPR119 HEK293-CRE beta-lactamase) reporter construct where agonist activation of human GPR119 is coupled to beta-lactamase production via a cyclic AMP response element (CRE). GPR119 activity is then measured utilizing a FRET-enabled beta-lactamase substrate, CCF4-AM (Live Blazer FRET-B/G Loading kit, Invitrogen cat #K1027). […] After 4 hours the plating medium was removed and replaced with 40 microL of assay medium (Assay medium is plating medium without potassium clavulanate and HIFBS). Varying concentrations of each compound to be tested was then added in a volume of 10 microL (final DMSO≦0.5%) and the cells were incubated for 16 hours at 37 degrees Celsius in a humidified environment containing 5% carbon dioxide. Plates were removed from the incubator and allowed to equilibrate to room temperature for approximately 15 minutes. 10 microL of 6×CCF4/AM working dye solution (prepared according to instructions in the Live Blazer FRET-B/G Loading kit, Invitrogen cat #K1027) was added per well and incubated at room temperature for 2 hours in the dark. Fluorescence was measured on an EnVision fluorimetric plate reader, excitation 405 nm, emission 460 nm/535 nm. EC50 determinations were made from agonist-response curves analyzed with a curve fitting program using a 4-parameter logistic dose-response equation.

Experiment [2] addresses T2, human GPR119 (Homo sapiens, UniProt Q8TDV5).
T2 construct: host or cells: U2OS
The experiment is described as follows: beta-arrestin functional assay (DiscoverX PathHunter U2OS hGPR119 beta-arrestin cells). It counts as cell-based. The settings on record: for EC50: read-out: Human B-arrestin Functional EC50; for Emax: U2OS, read-out: Intrinsic Activity* (B-arrestin). The procedure: GPR119 agonist activity was also determined with a cell-based assay utilizing DiscoverX PathHunter β-arrestin cell assay technology and their U2OS hGPR119 β-arrestin cell line (DiscoverX Cat #93-0356C3). In this assay, agonist activation is determined by measuring agonist-induced interaction of […] with activated GPR119. A small, 42 amino acid enzyme fragment, called ProLink was appended to the C-terminus of GPR119. Arrestin was fused to the larger enzyme fragment, termed EA (Enzyme Acceptor). Activation of GPR119 stimulates binding of arrestin and forces the complementation of the two enzyme fragments, resulting in formation of a functional β-galactosidase enzyme capable of hydrolyzing substrate and generating a chemiluminescent signal.
EC50 determinations were made from an agonist-response curves analyzed with a curve fitting program using a 4-parameter logistic dose response equation.
T2 sequence (P32121 whole entry partner, one chain of several): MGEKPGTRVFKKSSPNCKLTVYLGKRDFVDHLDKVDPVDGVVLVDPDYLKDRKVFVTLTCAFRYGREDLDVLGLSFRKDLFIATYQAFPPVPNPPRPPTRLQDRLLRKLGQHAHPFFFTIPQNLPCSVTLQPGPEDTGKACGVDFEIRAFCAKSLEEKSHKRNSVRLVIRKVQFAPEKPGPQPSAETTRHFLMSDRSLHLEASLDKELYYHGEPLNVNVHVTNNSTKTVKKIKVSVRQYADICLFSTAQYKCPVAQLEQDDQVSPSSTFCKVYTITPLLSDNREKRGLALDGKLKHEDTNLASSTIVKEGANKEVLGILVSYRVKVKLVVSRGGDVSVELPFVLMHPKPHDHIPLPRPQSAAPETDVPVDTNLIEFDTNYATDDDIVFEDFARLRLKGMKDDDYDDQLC

Experiment [3] has as its target T1, human GPR119. Nature of the experiment: cAMP HTRF functional assay (hGPR119 HEK-CRE beta-lactamase cells). The format is cell-based. To be noted: for Emax: read-out: Intrinsic Activity* (cAMP). The procedure:
GPR119 agonist activity was also determined with a cell-based assay utilizing an HTRF (Homogeneous Time-Resolved Fluorescence) cAMP detection kit (cAMP dynamic 2 Assay Kit; Cis Bio cat #62AM4PEC) that measures cAMP levels in the cell. The method is a competitive immunoassay between native cAMP produced by the cells and the cAMP labeled with the dye d2. The tracer binding is visualized by a Mab anti-cAMP labeled with Cryptate. The specific signal (i.e. energy transfer) is inversely proportional to the concentration of cAMP in either standard or sample.
Following 30 minutes incubation at room temperature, 5 microL of labeled d2 cAMP and 5 microL of anti-cAMP antibody (both diluted 1:20 in cell lysis buffer; as described in the manufacturers assay protocol) were added to each well of the assay plate. […] Raw data were converted to nM cAMP by interpolation from a cAMP standard curve (as described in the manufacturer's assay protocol) and EC50 determinations were made from an agonist-response curves analyzed with a curve fitting program using a 4-parameter logistic dose response equation.

Experiment [4] has as its target T1, human GPR119. Nature of the experiment: GPR119 radioligand binding assay ([3H]-Compound A or [3H]-Compound B, HEK 293FT membranes). The settings on record: Ki from IC50 by Cheng-Prusoff; one value per run; read-out: Human Binding Ki. Here is the method: Cells were harvested via centrifugation (3,000×g, 10 minutes), washed once on DPBS (minus Ca++/Mg++), resuspended in 0.25M sucrose, 25 mM HEPES, 0.5 mM EDTA, pH 7.4 and frozen at −80 degrees Celsius.
The frozen cells were thawed on ice and centrifuged at 700×g (1400 rpm) for 10 minutes at 4 degrees Celsius. The cell pellet was resuspended in 20 mL phosphate-buffered saline, and centrifuged at 1400 rpm for 10 minutes. […] Cells were then lysed with 15 gentle strokes of a tight-fitting glass Dounce homogenizer. The homogenate was centrifuged at 1000×g (2200 rpm) for 10 minutes at 4 degrees Celsius. The supernatant was transferred into fresh centrifuge tubes on ice. The cell pellet was resuspended in homogenization buffer, and centrifuged again at 1000×g (2200 rpm) for 10 minutes at 4 degrees Celsius after which the supernatant was removed and the pellet resuspended in homogenization buffer. […] The solution was then centrifuged at 25,000×g (15000 rpm) for 20 minutes at 4 degrees Celsius, the supernatant was discarded, and the pellet was resuspended in fresh homogenization buffer (minus Benzonase and MgCl2). After repeating the 25,000×g centrifugation step, the final membrane pellet was resuspended in homogenization buffer and frozen at −80 degrees Celsius.
2 microL of each dilution was added to appropriate wells of a 96-well plate (each concentration in triplicate).
Membranes expressing GPR119 were thawed and diluted to a final concentration of 20 μg/100 microL per well in Binding Buffer, and 100 microL of diluted membranes were added to each well of 96-well plate.
The plate was incubated for 60 minutes w/shaking at room temperature (approximately 25 degrees Celsius). […] Filters were then washed six times using washing buffer (50 mM Tris-HCl, pH 7.5 kept at 4 degrees Celsius). The filter plates were then air-dyed at room temperature overnight.
IC50 determinations were made from competition curves, analyzed with a proprietary curve fitting program (SIGHTS) and a 4-parameter logistic dose response equation. Ki values were calculated from IC50 values, using the Cheng-Prusoff equation.

Where [5] appears, read: hGPR119 HEK293-CRE beta-lactamase cells, one value per run.
Setting [6] is: percent of maximal activity relative to standard GPR119 agonist (WO2005121121) at 10 microM, one value per run.
The mark [7] stands for this setting: U2OS hGPR119 beta-arrestin cells, one value per run.
[8] abbreviates: hGPR119 HEK-CRE beta-lactamase cells, HTRF cAMP, one value per run.
Setting [9] is: percent of maximal activity relative to standard GPR119 agonist (WO2005121121) at 10 μM, one value per run.
Where [10] appears, read: **curve was extrapolated to 100% to calculate an EC50.

For `CC(C)OC(=O)N1CCC(n2ncc(COc3ccc(C#N)cc3F)c2C#N)CC1` [Example 8, Isopropyl 4-{5-cyano-4-[(4-cyano-2-fluorophenoxy)methyl]-1H-pyrazol-1-yl}piperidine-1-carboxylate], the concentration for a half-maximal effect (EC50) (as a rule, the concentration giving half of the maximal effect) at human GPR119 [1] (setting [5]) is 20 nM and 39 nM and 64 nM; at human GPR119 [2] (setting [7]) it was 16 nM; at human GPR119 [3] (setting [8]), 9 nM and 6 nM and 7 nM. Besides, the “Intrinsic Activity* (B-lactamase)” value at human GPR119 [1] (setting [6]) was 102% and 94%. In addition, the Emax at human GPR119 [1] (setting [6]) was found to be 100%; on human GPR119 [2] (setting [6]) it was 80%; on human GPR119 [3] (setting [9]), 89%. Moreover, the “Intrinsic Activity* (cAMP)” value on human GPR119 [3] (setting [9]) is 75% and 74%.

For the compound `CC1(OC(=O)N2CCC(n3ncc(COc4ccc(C(N)=O)cc4)c3C#N)CC2)CC1` [Example 16, 1-Methylcyclopropyl 4-{4-[(4-carbamoylphenoxy)methyl]-5-cyano-1H-pyrazol-1-yl}piperidine-1-carboxylate], the 50% effective concentration (EC50) at human GPR119 [2] (setting [10]) is 420 nM; at human GPR119 [2] (setting [7]), 472 nM; on human GPR119 [3] (setting [8]), 204 nM and 165 nM and 316 nM. The Emax is 100% on human GPR119 [2] (setting [10]) and 105% on human GPR119 [3] (setting [9]). The “Intrinsic Activity* (cAMP)” value at human GPR119 [3] (setting [9]) is 102% and 119%.

Turning to `CC(C)OC(=O)N1CCC(n2ncc(COc3ccc(-c4nnn[nH]4)cc3F)c2C#N)CC1` [Example 19, Isopropyl 4-(5-cyano-4-((2-fluoro-4-(1H-tetrazol-5-yl)phenoxy)methyl)-1H-pyrazol-1-yl)piperidine-1-carboxylate and Isopropyl 4-(5-cyano-4-((2-fluoro-4-(2H-tetrazol-5-yl)phenoxy)methyl)-1H-pyrazol-1-yl)piperidine-1-carboxylate], the 50% effective concentration (EC50) is 4000 nM and 4810 nM on human GPR119 [1] (setting [10]); 4480 nM at human GPR119 [3] (setting [10]); 4550 nM at human GPR119 [3] (setting [8]). Moreover, the Emax at human GPR119 [1] (setting [10]) is 100%; at human GPR119 [3] (setting [10]), 100%; on human GPR119 [3] (setting [9]), 99%. The Ki (commonly a measure of affinity in units of concentration, obtained from inhibition or displacement) at human GPR119 [4] is more than 6100 nM.

Regarding `CC(C)OC(=O)N1CCC(n2ncc(COc3ccc(F)cc3F)c2C#N)CC1` [Example 11, Isopropyl 4-{5-cyano-4-[(2,4-difluorophenoxy)methyl]-1H-pyrazol-1-yl}piperidine-1-carboxylate], the EC50 is 782 nM at human GPR119 [1] (setting [5]); 163 nM and 98 nM and 154 nM on human GPR119 [3] (setting [8]). Also, the values for the Emax on human GPR119 [1] (setting [6]) and at human GPR119 [3] (setting [9]) were 98% and 61%, respectively. For the same compound, the “Intrinsic Activity* (cAMP)” value on human GPR119 [3] (setting [9]) is 74% and 62%. In addition, the inhibitory constant (Ki) at human GPR119 [4] amounted to 530 nM.

On to `CC(C)OC(=O)N1CCC(n2ncc(CC(C)c3ccc(S(C)(=O)=O)cc3F)c2C#N)CC1` (stereo not shown) [Example 29, Isopropyl 4-(5-cyano-4-{2-[2-fluoro-4-(methylsulfonyl)phenyl]propyl}-1H-pyrazol-1-yl)piperidine-1-carboxylate], for which, on human GPR119 [1] (setting [10]), the EC50 was 3010 nM and the Emax was 100%. Further, on human GPR119 [3] (setting [9]), the “Intrinsic Activity* (cAMP)” value came to 33% and the Emax was determined as 27%. For the same compound, the Ki at human GPR119 [4] was 1550 nM and 3380 nM.

Consider `Cc1nc(S(C)(=O)=O)ccc1NCc1cnn(C2CCN(C(=O)OC(C)C)CC2)c1C#N` [Example 37, Isopropyl 4-[5-cyano-4-({[2-methyl-6-(methylsulfonyl)pyridin-3-yl]amino}methyl)-1H-pyrazol-1-yl]piperidine-1-carboxylate], for which the EC50 at human GPR119 [1] (setting [5]) was 328 nM and 805 nM; at human GPR119 [3] (setting [8]), 1160 nM. For the same compound, on human GPR119 [1] (setting [6]), the “Intrinsic Activity* (B-lactamase)” value was 105%. Further, the Emax at human GPR119 [1] (setting [6]) was found to be 114%; on human GPR119 [3] (setting [9]), 56%. The Ki on human GPR119 [4] was 416 nM.

For the compound `CC(C)OC(=O)N1CCC(n2ncc(COc3ccc(-c4nnn(C)n4)cc3F)c2C#N)CC1` [Example 21, Isopropyl 4-(5-cyano-4-((2-fluoro-4-(2-methyl-2H-tetrazol-5-yl)phenoxy)methyl)-1H-pyrazol-1-yl)piperidine-1-carboxylate], the EC50 at human GPR119 [1] (setting [5]) is 688 nM and 201 nM. Besides, on human GPR119 [1] (setting [6]), the “Intrinsic Activity* (B-lactamase)” value is on record as 96% and the Emax was 100%. The EC50 on human GPR119 [3] (setting [8]) is 44 nM and 32 nM and 57 nM. On human GPR119 [3] (setting [9]), the “Intrinsic Activity* (cAMP)” value is 31% and 34%; the Emax was 33%. Further, the Ki on human GPR119 [4] was 58 nM and 128 nM.

Turning to `CC1(OC(=O)N2CCC(n3ncc(COc4ccc(C#N)cc4)c3C#N)CC2)CC1` [Example 17, 1-Methylcyclopropyl 4-(5-cyano-4-((4-cyanophenoxy)methyl)-1H-pyrazol-1-yl)piperidine-1-carboxylate], the EC50 at human GPR119 [2] (setting [7]) was 161 nM; on human GPR119 [3] (setting [8]), 39 nM and 26 nM. Also, the values for the Emax at human GPR119 [2] (setting [6]) and on human GPR119 [3] (setting [9]) were 67% and 95%, respectively. The “Intrinsic Activity* (cAMP)” value at human GPR119 [3] (setting [9]) was found to be 91%.

As for `CC(C)OC(=O)N1CCC(n2ncc(COc3ccc(-c4nccn4C)cc3F)c2C#N)CC1` [Example 33, Isopropyl 4-(5-cyano-4-{[2-fluoro-4-(1-methyl-1H-imidazol-2-yl)phenoxy]methyl}-1H-pyrazol-1-yl)piperidine-1-carboxylate], on human GPR119 [2] (setting [10]), the half-maximal effective concentration (EC50) is 1330 nM and the Emax is 100%. For the same compound, the half-maximal effective concentration (EC50) on human GPR119 [3] (setting [8]) was 244 nM and 274 nM. At human GPR119 [3] (setting [9]), the “Intrinsic Activity* (cAMP)” value stood at 92% and the Emax was 85%.
